Source: ChEMBL document CHEMBL1126861 (J Med Chem, 1993)
Where a SMILES comes first, the peptide text is derived from it.

What was measured:
[1] = target: Mu-type opioid receptor (Rattus norvegicus, UniProt P33535); assay: Tested for binding affinity against mu opioid receptor fby displacing [3H]- DAMGO radioligand from rat brain membrane preparations
[2] = target: Delta-type opioid receptor (Rattus norvegicus, UniProt P33533); assay: Tested for binding affinity against delta opioid receptor by displacing [3H]- DSLET radioligand from rat brain membrane preparations
Chain of Delta-type opioid receptor (P33533 whole entry): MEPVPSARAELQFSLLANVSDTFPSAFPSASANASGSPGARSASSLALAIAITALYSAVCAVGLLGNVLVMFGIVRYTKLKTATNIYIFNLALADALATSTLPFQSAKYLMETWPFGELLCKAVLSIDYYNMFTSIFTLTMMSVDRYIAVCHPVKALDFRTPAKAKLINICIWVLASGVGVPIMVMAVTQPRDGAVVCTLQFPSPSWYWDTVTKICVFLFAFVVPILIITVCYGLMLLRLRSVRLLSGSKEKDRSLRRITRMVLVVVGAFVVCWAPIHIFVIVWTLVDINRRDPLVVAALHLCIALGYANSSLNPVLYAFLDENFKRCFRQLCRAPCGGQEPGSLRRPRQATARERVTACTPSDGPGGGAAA

Chain of Mu-type opioid receptor (P33535 whole entry): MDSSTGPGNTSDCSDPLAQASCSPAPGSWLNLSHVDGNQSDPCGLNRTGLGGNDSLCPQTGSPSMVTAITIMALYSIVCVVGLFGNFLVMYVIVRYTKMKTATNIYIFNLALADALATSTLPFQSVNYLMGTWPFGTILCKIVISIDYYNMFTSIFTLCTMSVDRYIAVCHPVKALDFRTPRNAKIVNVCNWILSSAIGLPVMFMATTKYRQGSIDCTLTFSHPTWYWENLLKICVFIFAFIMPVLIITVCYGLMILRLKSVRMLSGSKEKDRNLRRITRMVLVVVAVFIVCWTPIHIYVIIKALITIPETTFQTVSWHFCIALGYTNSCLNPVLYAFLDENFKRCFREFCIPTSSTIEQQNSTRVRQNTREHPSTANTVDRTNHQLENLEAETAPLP

Row | Structure (SMILES) | Ki [1] [nM] | Ki [2] [nM]
1 | N[C@@H](Cc1ccc(O)cc1)C(=O)N1Cc2ccccc2C[C@H]1C(=O)N[C@@H](Cc1ccccc1)C(=O)N[C@@H](Cc1ccccc1)C(=O)O (HELM PEPTIDE1{Y.[Tic].F.F}$$$$V2.0) | 3230 | 0.308
2 | N[C@@H](Cc1ccc(O)cc1)C(=O)N1Cc2ccccc2C[C@H]1C(=O)N[C@@H](Cc1ccccc1)C(=O)O (HELM PEPTIDE1{Y.[Tic].F}$$$$V2.0) | – | 1.94
3 | CC(C)[C@H](NC(=O)[C@H](CC(=O)O)NC(=O)[C@H](Cc1ccccc1)NC(=O)[C@@H](C)NC(=O)[C@@H](N)Cc1ccc(O)cc1)C(=O)N[C@H](C(=O)NCC(N)=O)C(C)C [DELTORPHIN C] | 3930 | 6.43
4 | Oc1ccc2c3c1O[C@H]1c4[nH]c5ccccc5c4C[C@@]4(O)[C@@H](C2)N(CC2CC2)CC[C@]314 [NALTRINDOLE] | – | 0.182
